Data taken from patent US6500414B2, “Aromatic dimethicone copolyol polymers as sunscreen agents in personal care applications” (Siltech LLC, priority 2000, dated 2002).

Assay: UV maxima for the absorption
Assay type: physicochemical
Settings: spectral region of the absorption
Text: The following comparison is a common silicone backbone, with differing, “b”, and “c” values. The effect upon solubility at 5% in water and the UV maxima for the absorption are quite dramatic.

SMILES: C=CCc1ccc(O)c(OC)c1 [eugenol, 2-methoxy-4-(2 propenyl)phenol]
- UV absorption region: UV-C region
